This passage reports inhibition results from patent publication US10669284B2, “Fused thiazolopyrimidine derivatives as MNKS inhibitors” (LIFEARC, priority 2015, dated 2020).

In test [1] the target is T1, TYRO3 (Homo sapiens, UniProt Q06418).
T1 sequence (Q06418 41-890): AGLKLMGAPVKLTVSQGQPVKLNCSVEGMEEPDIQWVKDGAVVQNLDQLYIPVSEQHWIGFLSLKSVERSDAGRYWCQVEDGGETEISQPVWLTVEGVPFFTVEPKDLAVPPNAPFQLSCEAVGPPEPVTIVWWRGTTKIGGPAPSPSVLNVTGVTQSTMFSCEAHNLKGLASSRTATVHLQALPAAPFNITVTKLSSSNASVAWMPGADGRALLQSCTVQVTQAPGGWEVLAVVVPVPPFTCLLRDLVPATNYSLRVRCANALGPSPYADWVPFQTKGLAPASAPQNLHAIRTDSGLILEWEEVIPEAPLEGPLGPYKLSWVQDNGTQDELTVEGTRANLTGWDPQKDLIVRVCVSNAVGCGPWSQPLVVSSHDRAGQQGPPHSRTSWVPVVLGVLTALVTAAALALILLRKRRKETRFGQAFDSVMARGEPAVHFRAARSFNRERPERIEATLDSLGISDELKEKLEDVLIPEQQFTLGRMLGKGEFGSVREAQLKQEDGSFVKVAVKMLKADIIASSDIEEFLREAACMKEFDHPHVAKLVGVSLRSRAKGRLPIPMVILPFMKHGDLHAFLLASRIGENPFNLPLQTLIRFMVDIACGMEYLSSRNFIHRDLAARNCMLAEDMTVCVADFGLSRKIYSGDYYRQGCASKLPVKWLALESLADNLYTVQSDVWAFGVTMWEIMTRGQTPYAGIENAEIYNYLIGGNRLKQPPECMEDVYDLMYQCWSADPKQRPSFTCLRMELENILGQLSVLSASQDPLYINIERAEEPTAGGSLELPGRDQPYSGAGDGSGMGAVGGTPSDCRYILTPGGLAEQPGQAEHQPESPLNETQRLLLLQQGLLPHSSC
The experiment in a line: Kinase selectivity screen TYRO3. The settings on record: read-out: % inhibition of TYRO3.

In test [2] the target is AKT1 (Homo sapiens, UniProt P31749). The test is described as follows: Kinase selectivity screen AKT1. The following applies: read-out: % inhibition of AKT1.
AKT1, sequence (P31749 whole entry, species assumed): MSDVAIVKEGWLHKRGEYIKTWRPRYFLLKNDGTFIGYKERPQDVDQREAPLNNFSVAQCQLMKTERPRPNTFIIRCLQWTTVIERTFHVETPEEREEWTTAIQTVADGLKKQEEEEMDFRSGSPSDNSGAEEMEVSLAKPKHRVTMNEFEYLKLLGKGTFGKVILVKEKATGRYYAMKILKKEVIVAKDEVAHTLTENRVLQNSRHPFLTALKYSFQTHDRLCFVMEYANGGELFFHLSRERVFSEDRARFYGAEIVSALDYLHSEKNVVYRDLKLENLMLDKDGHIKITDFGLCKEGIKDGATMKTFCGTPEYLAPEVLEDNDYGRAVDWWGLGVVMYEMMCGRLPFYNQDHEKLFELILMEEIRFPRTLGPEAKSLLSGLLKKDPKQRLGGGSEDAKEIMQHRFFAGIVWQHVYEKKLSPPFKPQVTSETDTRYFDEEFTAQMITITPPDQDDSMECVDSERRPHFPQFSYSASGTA
Test [3] concerns the target T2, PRKCE (Homo sapiens, UniProt Q02156).
T2 sequence (Q02156 1-737): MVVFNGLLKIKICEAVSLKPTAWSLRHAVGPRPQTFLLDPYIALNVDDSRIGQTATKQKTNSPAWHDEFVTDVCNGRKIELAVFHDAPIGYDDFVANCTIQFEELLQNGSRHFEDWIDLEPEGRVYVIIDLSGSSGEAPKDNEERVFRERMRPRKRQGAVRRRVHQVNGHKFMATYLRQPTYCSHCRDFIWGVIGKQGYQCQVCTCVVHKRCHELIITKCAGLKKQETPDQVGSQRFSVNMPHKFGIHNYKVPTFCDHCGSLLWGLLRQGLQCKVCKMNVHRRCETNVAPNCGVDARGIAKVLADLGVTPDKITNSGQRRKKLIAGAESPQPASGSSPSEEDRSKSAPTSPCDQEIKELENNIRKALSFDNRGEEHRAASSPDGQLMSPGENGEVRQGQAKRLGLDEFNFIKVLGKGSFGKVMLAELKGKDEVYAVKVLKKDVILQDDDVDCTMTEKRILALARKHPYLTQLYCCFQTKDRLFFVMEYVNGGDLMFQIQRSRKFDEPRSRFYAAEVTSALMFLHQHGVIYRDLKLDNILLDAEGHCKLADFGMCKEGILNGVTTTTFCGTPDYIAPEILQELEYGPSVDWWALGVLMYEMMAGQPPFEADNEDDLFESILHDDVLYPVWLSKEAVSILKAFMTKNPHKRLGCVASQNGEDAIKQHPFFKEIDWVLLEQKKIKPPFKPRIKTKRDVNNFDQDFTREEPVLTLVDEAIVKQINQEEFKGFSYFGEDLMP
The test is described as follows: Kinase selectivity screen PRKCE. The following applies: read-out: % inhibition of PRKCE.

The target of test [4] is T3, NUAK1 (Homo sapiens, UniProt O60285).
T3 sequence (O60285 1-661): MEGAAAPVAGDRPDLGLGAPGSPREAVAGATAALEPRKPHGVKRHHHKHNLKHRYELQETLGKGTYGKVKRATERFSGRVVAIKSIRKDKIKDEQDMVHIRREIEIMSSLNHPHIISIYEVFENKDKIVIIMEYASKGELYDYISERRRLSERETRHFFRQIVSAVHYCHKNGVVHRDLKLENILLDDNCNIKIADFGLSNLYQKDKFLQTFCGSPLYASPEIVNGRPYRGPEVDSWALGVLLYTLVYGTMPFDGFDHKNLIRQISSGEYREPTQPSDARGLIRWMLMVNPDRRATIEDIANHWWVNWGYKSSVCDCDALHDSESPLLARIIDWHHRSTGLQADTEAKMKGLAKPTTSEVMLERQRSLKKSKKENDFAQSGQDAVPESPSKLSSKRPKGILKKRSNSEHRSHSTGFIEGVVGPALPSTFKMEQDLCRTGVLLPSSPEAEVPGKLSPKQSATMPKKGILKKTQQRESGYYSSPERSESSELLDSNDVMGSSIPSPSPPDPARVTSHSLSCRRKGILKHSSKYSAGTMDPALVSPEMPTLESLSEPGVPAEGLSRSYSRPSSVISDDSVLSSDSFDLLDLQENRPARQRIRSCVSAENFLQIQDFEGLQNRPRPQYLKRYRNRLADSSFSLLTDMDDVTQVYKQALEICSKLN
The test is described as follows: Kinase selectivity screen NUAK1. The settings on record: read-out: % inhibition of NUAK1.

In test [5] the target is T4, PRAK (Homo sapiens, UniProt Q8IW41).
T4 sequence (Q8IW41 1-473): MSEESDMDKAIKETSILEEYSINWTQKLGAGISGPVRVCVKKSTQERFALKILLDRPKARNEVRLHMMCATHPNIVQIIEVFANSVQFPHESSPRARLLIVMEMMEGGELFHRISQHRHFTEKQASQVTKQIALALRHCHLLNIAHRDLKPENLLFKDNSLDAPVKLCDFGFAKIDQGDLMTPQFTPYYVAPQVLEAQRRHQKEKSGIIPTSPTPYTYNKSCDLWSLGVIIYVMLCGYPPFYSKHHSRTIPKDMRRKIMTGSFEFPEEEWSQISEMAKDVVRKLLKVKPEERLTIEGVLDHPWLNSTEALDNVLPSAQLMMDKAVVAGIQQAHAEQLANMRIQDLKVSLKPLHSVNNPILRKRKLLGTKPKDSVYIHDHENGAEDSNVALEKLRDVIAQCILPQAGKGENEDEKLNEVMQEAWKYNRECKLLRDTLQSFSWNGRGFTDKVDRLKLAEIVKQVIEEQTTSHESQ
The test is described as follows: Kinase selectivity screen PRAK. The following applies: read-out: % inhibition of PRAK.

Test [6] addresses PIP5K1C (Homo sapiens, UniProt O60331). The test is described as follows: Kinase selectivity screen PIP5K1C. The settings on record: read-out: % inhibition of PIP5K1C.

PIP5K1C, sequence (O60331 whole entry, species assumed): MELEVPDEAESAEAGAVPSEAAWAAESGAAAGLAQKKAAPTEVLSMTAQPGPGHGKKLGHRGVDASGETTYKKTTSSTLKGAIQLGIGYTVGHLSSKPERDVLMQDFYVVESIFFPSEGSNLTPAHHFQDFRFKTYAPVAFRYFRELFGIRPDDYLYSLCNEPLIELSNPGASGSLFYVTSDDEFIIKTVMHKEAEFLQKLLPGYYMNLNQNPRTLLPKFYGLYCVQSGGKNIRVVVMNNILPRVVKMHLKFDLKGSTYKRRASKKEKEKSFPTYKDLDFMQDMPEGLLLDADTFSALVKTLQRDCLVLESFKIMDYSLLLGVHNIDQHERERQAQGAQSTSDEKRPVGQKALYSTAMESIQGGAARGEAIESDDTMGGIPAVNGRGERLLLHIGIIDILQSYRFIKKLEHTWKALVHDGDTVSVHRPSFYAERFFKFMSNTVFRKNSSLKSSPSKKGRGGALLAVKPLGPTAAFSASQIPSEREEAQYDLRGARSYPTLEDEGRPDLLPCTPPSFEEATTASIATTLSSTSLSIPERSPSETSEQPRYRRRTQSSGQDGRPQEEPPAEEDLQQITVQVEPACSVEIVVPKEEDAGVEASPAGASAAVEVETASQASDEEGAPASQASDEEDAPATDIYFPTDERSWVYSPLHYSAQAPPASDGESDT

In the case of `O=C(NCC1CCNCC1)c1nc2c(N3CCc4cc(F)ccc43)ncnc2s1` [Example 58, 7-(5-fluoroindolin-1-yl)-N-(4-piperidylmethyl)thiazolo[5,4-d]pyrimidine-2-carboxamide], the inhibition (usually the share of the control response that was lost under treatment) at 1 µM in test [1] was determined as 20%; in test [2] it was 0%; in test [3] it was 0%; in test [4], 33%; in test [5], 0%; in test [6], 6%.

For the compound `CN(C)CCCNC(=O)c1nc2c(N3CCc4cc(F)ccc43)ncnc2s1` [Example 64, N-[3-(dimethylamino)propyl]-7-(5-fluoroindolin-1-yl)thiazolo[5,4-d]pyrimidine-2-carboxamide], the inhibition at 1 µM in test [1] was found to be 0%; in test [2] it was 0%; in test [3], 0%; in test [4], 43%; in test [5], 0%; in test [6] it was 3%.

Take `CC(C)Oc1cc(F)ccc1Nc1ncnc2sc(C(=O)NCC3CCNCC3)nc12` [Example 10, 7-(4-fluoro-2-isopropoxy-anilino)-N-(4-piperidylmethyl)thiazolo[5,4-d]pyrimidine-2-carboxamide]: the inhibition at 1 µM was found to be 0% in test [1]; 0% in test [2]; 4% in test [3]; 15% in test [4]; 0% in test [5]; 6% in test [6].
